According to EP1175222B1, “MONTHLY DOSES OF GLYCOPEPTIDE ANTIBIOTICS FOR LONG-TERM PREVENTION OF STREPTOCOCCUS PNEUMONIAE INFECTIONS” (ELI LILLY AND COMPANY, priority 1999, dated 2000):
In brackets after ≈: the same amount, converted by molar mass. Like-named read-outs stand apart in the source and are kept apart here.

Key:
S pyogenes C-203 = experiment: Mouse protection model, intraperitoneal bacterial challenge; format: in vivo; settings: mice; dose protecting 50% from lethal infection; two subcutaneous doses 1 and 5 hours after challenge
Method: (§1) As listed in Table 2, N^DISACC-(4-(4-chlorophenyl)benzyl)A82846B appeared to have activity 30 to 40 times that of vancomycin when given subcutaneously to mice with systemic streptococcal or staphylococcal infections. […] In a murine model of systemic infection, various dosing regimens of N^DISACC-(4-(4-chlorophenyl)benzyl)A82846B administered subcutaneously were compared in animals inoculated intraperitoneally with either S pneumoniae or S aureus. The total dose ranged from 0.18 to 2.01 mg/kg body weight, subdivided into 1 to 24 doses during a 48-hour treatment period. Pharmacokinetic studies were performed in uninfected animals using a bioassay. Using multiple regression analysis to find the pharmacodynamic parameter associated with survival, time above the MIC appeared-to be more important (p<0.00001) than the maximum plasma concentration Cmax (p=0.01); however, for 1- and 2-dose regimens near the ED50, Cmax appeared to be the best predictor of outcome. A more detailed description of this study may be found in Knudsen, J., et al., "Pharmacodynamics of glycopeptides in Animal Models" Abstracts of the 20th International Congress of Chemotherapy, Abstract No. 4076, June (1997). […]

S pneumoniae Park I = experiment: as above; format: in vivo; settings: mice; dose protecting 50% from lethal infection; two subcutaneous doses 1 and 5 hours after challenge
Method: as §1

Streptococcus pneumoniae = experiment: MIC90 by NCCLS broth microdilution against a worldwide collection of Streptococcus pneumoniae; format: cell-based
Method: (§2) The term "MIC" or "minimum inhibitory concentration" refers to the lowest concentration of the agent that prevents visible growth after 18 to 24 hours of incubation. "MIC90" refers to the lowest concentration of the agent that prevents 90% growth after 18 to 24 hours of incubation. "MBC" or "minimal bactericidal concentration" refers to the lowest concentration that results in a 99.9% decline in bacterial numbers. Although the value of the MBC as a clinical test has not been established, it may be useful in special instances where very precise knowledge of the ability of a given antimicrobial agent to kill a specific clinical isolate is critical, as in the therapy of bacterial endocarditis.
Table 1 lists the in vitro activity of N^DISACC-(4-(4-chlorophenyl)benzyl)A82846B and other compounds against a worldwide collection of Streptococcus pneumoniae. N^DISACC-(4-(4-chlorophenyl)benzyl)A82846B clearly demonstates a significant improvement against all three strains. […]
MICs were determined using NCCLS broth microdilution methodology (see, Fasola E., Spangler SK., Ednie LM., Jacobs MR., Bajaksouzian S., and Appelbaum PC., "Comparative activities of LY 333328 against penicillin-susceptible and -resistant pneumococci" Antimicrobial Agents & Chemotherapy, 40(11), 2661-3 (1996)).

S.pneumoniae = experiment: In vitro time-kill curves; format: cell-based; settings: 10 mg/l
Method: (§3) At 12 h after infection, they were treated with a single dose of N^DISACC-(4-(4-chlorophenyl)benzyl)A82846B [1 mg/kg (n = 5), 2.5 mg/kg (n = 5), 10 mg/kg (n = 10), […] (n = 2)] . N^DISACC-(4-(4-chlorophenyl)benzyl)A82846B was dissolved in 5% glucose and infused over 30 min. Controls received a bolus of ceftriaxone (20 mg/kg body weight) followed by a continuous infusion of 10 mg/kg/h (n = 12). The cerebrospinal fluid (CSF) was drawn at 12, 14, 17, 20, and 24h for the determination of bacterial titers, leukocyte densities, lipoteichoic/teichoic acid, lactate and protein concentrations. The concentration of the neuron-specific enolase in CSF was measured at 24h. Bactericidal activity in CSF was estimated by log-linear regression of bacterial titers versus time. Additionally, time-kill curves were performed with 10 mg/l N^DISACC-(4-(4-chlorophenyl)benzyl)A82846B.

[1] = tested on: penicillin-sensitive S. pneumoniae type 3 strain; experiment: In-vivo rabbit model of S. pneumoniae meningitis (CSF measurements); settings: rabbits
Method: as §3

S aureus SA027 = experiment: Mouse protection model, intraperitoneal bacterial challenge; format: in vivo; settings: mice; dose protecting 50% from lethal infection; two subcutaneous doses 1 and 5 hours after challenge
Method: as §1

[2] = design: species or system mice; settings: mouse, in vivo, sc
Method: as §1

[3] = Safety and pharmacokinetics of single intravenous doses in eight healthy men; format: in vivo
Method: An open-label, uncontrolled, dose-escalation study was conducted with eight healthy men. All subjects were between 22 and 50 years of age and within 10% of their ideal body weights. Single does, ranging from 0.5 mg/kg body weight to 3 mg/kg body weight, were administered intravenously over 30 minutes. Plasma samples were collected just prior to the start of infusion and at intervals for 336 hours after the end of the infusion for assessment of drug concentration, biochemical and hematologic parameters. N^DISACC-(4-(4-chlorophenyl)benzyl) A82846B plasma and urine concentrations were determined by HPLC and competitive binding radioimmunoassay, respectively. Individual plasma concentration-time profiles were evaluated based on compartmental analysis techniques.

[4] = design: species or system rats; settings: rat, in vivo, 5 mg/kg
From the text: Although single doses of N^DISACC-(4-(4-chlorophenyl)benzyl)A82846B may provide high plasma concentrations for a prolonged period of time, it may also be highly desirable to maintain high concentrations in respiratory tissues (the main portal of initial tissue infection and invasion).

S. pneumoniae = experiment: Neutropenic model of S. pneumoniae bacteremia in mice; format: in vivo; settings: subcutaneously or intravenously at doses ≥ 5 mg/kg body weight
[5] = tested on: penicillin-sensitive S. pneumoniae type 3 strain; experiment: MIC and MBC for the meningitis model strain; format: cell-based; settings: penicillin-sensitive type 3 strain
Method: as §2
as §3, with “Bactericidal activity in CSF was estimated by log-linear regression of bacterial titers versus time. Additionally, time-kill curves were performed with 10 mg/l N^DISACC-(4-(4-chlorophenyl)benzyl)A82846B.” left out

[6] = Streptococcus pneumoniae, Intermediate N = 40 (penicillin-intermediate by NCCLS criteria), read-out: MIC90
[7] = Streptococcus pneumoniae, Resistant N = 42 (penicillin-resistant by NCCLS criteria), read-out: MIC90
[8] = Streptococcus pneumoniae, Sensitive N = 50 (penicillin-sensitive by NCCLS criteria), read-out: MIC90
[9] = Intermediate N = 40 (penicillin-intermediate by NCCLS criteria)
[10] = Resistant N = 42 (penicillin-resistant by NCCLS criteria)
[11] = Sensitive N = 50 (penicillin-sensitive by NCCLS criteria)
[12] = estimated by Lineweaver-Burk plot
[13] = healthy men, single i.v. dose 0.5 to 3 mg/kg over 30 minutes
[14] = healthy men, single i.v. dose 0.5 to 3 mg/kg over 30 minutes, normalized to dose and weight

Compound: CN[C@H](CC(C)C)C(=O)N[C@H]1C(=O)N[C@@H](CC(N)=O)C(=O)N[C@H]2C(=O)N[C@H]3C(=O)N[C@H](C(=O)N[C@H](C(=O)O)c4cc(O)cc(O)c4-c4cc3ccc4O)[C@H](O[C@H]3C[C@](C)(N)[C@@H](O)[C@H](C)O3)c3ccc(c(Cl)c3)Oc3cc2cc(c3O[C@@H]2O[C@H](CO)[C@@H](O)[C@H](O)[C@H]2O[C@H]2C[C@](C)(N)[C@@H](O)[C@H](C)O2)Oc2ccc(cc2Cl)[C@H]1O [A82846B]
- ED50 (S pyogenes C-203): 0.18 mg/kg/dose
- ED50 (S pneumoniae Park I): 0.18 mg/kg/dose

Compound: CO/N=C(\C(=O)N[C@@H]1C(=O)N2C(C(=O)O)=C(CSc3nc(=O)c(=O)[nH]n3C)CS[C@H]12)c1csc(N)n1 [Ceftriaxone]
- MIC90 (Streptococcus pneumoniae; [6]): 0.5 µg/mL (≈ 0.902 µM)
- MIC90 (Streptococcus pneumoniae; [7]): 2 µg/mL (≈ 3.61 µM)
- MIC90 (Streptococcus pneumoniae; [8]): 0.06 µg/mL (≈ 0.108 µM)
- time until S.pneumoniae killed / cultures sterile (S.pneumoniae): 12 h
- bactericidal activity in CSF, Δlog CFU/ml/h ± SD ([1]; bolus 20 mg/kg body weight then continuous infusion of 10 mg/kg/h): -0.33 ± 0.15 Δlog CFU/ml/h

Compound: C[C@@H](O)[C@H]1C(=O)N2C(C(=O)O)=C(SCCN=CN)C[C@H]12 [Imipenem]
- MIC90 (Streptococcus pneumoniae; [6]): 0.125 µg/mL (≈ 0.418 µM)
- MIC90 (Streptococcus pneumoniae; [7]): 0.5 µg/mL (≈ 1.67 µM)
- MIC90 (Streptococcus pneumoniae; [8]): 0.03 µg/mL (≈ 0.1 µM)

Compound: CC1(C)S[C@@H]2[C@H](NC(=O)Cc3ccccc3)C(=O)N2[C@H]1C(=O)O [Penicillin G]
- MIC90 (Streptococcus pneumoniae; [9]): 1.0 µg/mL (≈ 2.99 µM)
- MIC90 (Streptococcus pneumoniae; [10]): 4.0 µg/mL (≈ 12 µM)
- MIC90 (Streptococcus pneumoniae; [11]): 0.06 µg/mL (≈ 0.179 µM)

Compound: CO[C@H]1/C=C/O[C@@]2(C)Oc3c(C)c(O)c4c(O)c(c(/C=N/N5CCN(C)CC5)c(O)c4c3C2=O)NC(=O)/C(C)=C\C=C\[C@H](C)[C@H](O)[C@@H](C)[C@@H](O)[C@@H](C)[C@H](OC(C)=O)[C@@H]1C [Rifampin]
- MIC90 (Streptococcus pneumoniae; [6]): 0.015 µg/mL (≈ 0.0182 µM)
- MIC90 (Streptococcus pneumoniae; [7]): > 8 µg/mL
- MIC90 (Streptococcus pneumoniae; [8]): 0.03 µg/mL (≈ 0.0365 µM)

Compound: CN[C@H](CC(C)C)C(=O)N[C@H]1C(=O)N[C@@H](CC(N)=O)C(=O)N[C@H]2C(=O)N[C@H]3C(=O)N[C@H](C(=O)N[C@H](C(=O)O)c4cc(O)cc(O)c4-c4cc3ccc4O)[C@H](O)c3ccc(c(Cl)c3)Oc3cc2cc(c3O[C@@H]2O[C@H](CO)[C@@H](O)[C@H](O)[C@H]2O[C@H]2C[C@](C)(N)[C@H](O)[C@H](C)O2)Oc2ccc(cc2Cl)[C@H]1O [Vancomycin]
- MIC90 (Streptococcus pneumoniae; [9]): 0.5 µg/mL (≈ 0.345 µM)
- MIC90 (Streptococcus pneumoniae; [10]): 0.5 µg/mL (≈ 0.345 µM)
- MIC90 (Streptococcus pneumoniae; Streptococcus pneumoniae): 0.5 µg/mL (≈ 0.345 µM)
- ED50 (S pyogenes C-203): 0.80 mg/kg/dose
- ED50 (S aureus SA027): 0.70 mg/kg/dose
- ED50 (S pneumoniae Park I): 1-1 mg/kg/dose

Compound: N^DISACC-(4-(4-chlorophenyl)benzyl)A82846B
- MIC90 (Streptococcus pneumoniae; [9]): 0.015 µg/mL
- MIC90 (Streptococcus pneumoniae; [10]): 0.03 µg/mL
- MIC90 (Streptococcus pneumoniae; [11]): 0.008 µg/mL
- ED50 (S pyogenes C-203): 0.045 mg/kg/dose
- ED50 (S aureus SA027): 0.009 mg/kg/dose
- ED50 (S pneumoniae Park I): 0.028 mg/kg/dose
- time until S.pneumoniae killed / cultures sterile (S.pneumoniae): ≤ 1 h
- absorption following subcutaneous administration [2]: absorbed poorly
- mean concentration of the neuron-specific enolase in CSF at 24h ([1]; 10 mg/kg body weight, parameter of neuronal damage, p = 0.14 vs ceftriaxone): 92.3 ± 68.7
- half-maximal dose (KD) [1, 12]: 5.3 mg/kg body weight
- maximum bactericidal rate (Emax) [1, 12]: -0.88 Δlog CFU/ml/h
- bactericidal activity in CSF, Δlog CFU/ml/h ± SD ([1]; single dose of 1 mg/kg body weight (only bacteriostatic)): 0.01 ± 0.11 Δlog CFU/ml/h
- bactericidal activity in CSF, Δlog CFU/ml/h ± SD ([1]; single dose of 2.5 mg/kg): -0.26 ± 0.22 Δlog CFU/ml/h
- bactericidal activity in CSF, Δlog CFU/ml/h ± SD ([1]; single dose of 10 mg/kg body weight 12 h after infection): -0.29 ± 0.21 Δlog CFU/ml/h
- Protein, lactate and lipoteichoic/teichoic acid concentrations in CSF ([1]; single dose of 10 mg/kg body weight compared with ceftriaxone 10 mg/kg/h): no significant differences
- bactericidal activity in CSF, Δlog CFU/ml/h ([1]; single dose of 40 mg/kg): -0.52 ± 0.02 Δlog CFU/ml/h
- terminal t1/2 ([3]; healthy men, single i.v. doses, to be interpreted cautiously): 10.5 days
- area under the terminal phase as share of total AUC0-∞ ([3]; human, in vivo, iv): approximately 50%
- lung tissue half life [4]: 29 days
- effect on bacteremia (S. pneumoniae): eliminated bacteremia
- MBC [5]: 0.03 µg/mL
- MIC [5]: 0.015 µg/mL

Compound: N^DISACC-(4-(4-chlorophenyl)benzyl)A82846B Diphosphate
- % dose excreted in urine, Mean (%CV) [3, 13]: 3.1 (42) %
- T1/2, Mean (%CV) [3, 13]: 251 (96) hr
- AUC0-∞, Mean (%CV) [3, 14]: 201 (62) (µg hr/ml)/(mg/kg)
- Cmax, Mean (%CV) [3, 14]: 16.5 (20) (µg/ml)/(mg/kg)
- Clp, Mean (%CV) ([3]; healthy men, single i.v. dose 0.5 to 3 mg/kg over 30 minutes, plasma clearance): 0.0896 (30) ml/min/kg
- Vss, Mean (%CV) ([3]; healthy men, single i.v. dose 0.5 to 3 mg/kg over 30 minutes, steady-state volume of distribution): 1.08 (45) 1/kg

Compound: Teicoplanin
- MIC90 (Streptococcus pneumoniae; [9]): 0.06 µg/mL
- MIC90 (Streptococcus pneumoniae; [10]): 0.06 µg/mL
- MIC90 (Streptococcus pneumoniae; [11]): 0.06 µg/mL
